Data taken from patent publication US12049439B2 (OrsoBio, Inc., priority 2018, dated 2024).

Test system: PC-3 cells
Assay: PC-3 Oxygen Rate Consumption (OCR) Assay
Type: cell-based
Conditions: Homo sapiens, 0.05 h, medium with 2% FBS, OCR at 3-min post-injection normalized to % increase over DMSO-treated cells, concentration for half-maximal OCR increase, read-out: EC50-PC3-OCR-FBS-3min
Protocol: PC-3 Oxygen Rate Consumption (OCR) Assay Procedure:
One day before the assay, PC-3 cells were seeded at 2.5×10^4 cells/160 μL/well in a 96-well XFe96 cell plate, part of a FlexPak containing a cell plate and a cartridge (Agilent, Sunnyvale, CA). The cells were incubated overnight at 37° C. in a 5% CO2 and 90% humidity incubator with F12K culture medium (ThermoFisher Scientific/Invitrogen, Grand Island, NY) containing 10% FBS and 1% penicillin/streptomycin. On the day of the assay, the cells were washed twice with 300 µL/well Medium A [XF assay medium (Agilent) supplemented 10 mM glucose, 1 mM pyruvate, and 2% fetal bovine serum (FBS)], and incubated with 175 µL/well Media A for 1 hr in a 37° C., non-CO2 incubator prior to the measurement of cellular respiration. Compounds of interests were prepared in 1:2 serial dilutions with 100% DMSO and then further diluted into 8× working stock with Media A prior to being loaded to Injection Port A on a XFe96 Analyzer (Agilent). Six replicates were used for each treatment. The cartridge was calibrated in the XFe96 Analyzer 30 minute prior to the measurement of cellular respiration. Basal levels of OCR were measured three times, each using a “3-minute mixing/3-minute measurement” program. The compound effect was measured immediately after compound injection from Injection Port A, and OCR was monitored continuously 10 times, each time using a “1-minute mixing/2-minute measurement” program for a total of 30 minutes post compound injection. The level of OCR at 3-min post-injection was normalized to % increase over DMSO-treated cells. The concentration of compound required to reach the half-maximal OCR increase was defined as EC50 Table 2 contains PC3 OCR EC50 values for the compounds disclosed.

Structure (SMILES) | EC50 [µM]
CS(=O)(=O)Nc1cc(F)ccc1C(=O)NC12CC(C(F)(F)F)(C1)C2 [Example 1, 4-fluoro-2-(methylsulfonamido)-N-(3-(trifluoromethyl)bicyclo[1.1.1]pentan-1-yl)benzamide] | 13.1
O=C(NC12CC(C(F)(F)F)(C1)C2)c1ccc(F)cc1NS(=O)(=O)C1CC1 [Example 2, 2-(cyclopropanesulfonamido)-4-fluoro-N-(3-(trifluoromethyl)bicyclo[1.1.1]pentan-1-yl)benzamide] | 3.65
CC(C)(C)c1ccc(S(=O)(=O)Nc2cc(F)ccc2C(=O)NC23CC(C(F)(F)F)(C2)C3)cc1 [Example 3, 2-((4-(tert-butyl)phenyl)sulfonamido)-4-fluoro-N-(3-(trifluoromethyl)bicyclo[1.1.1]pentan-1-yl)benzamide] | 0.785
CC(C)(C)c1ccc(S(=O)(=O)Nc2cc(C(F)(F)F)ccc2C(=O)NC23CC(C(F)(F)F)(C2)C3)cc1 [Example 4, 2-((4-(tert-butyl)phenyl)sulfonamido)-4-(trifluoromethyl)-N-(3-(trifluoromethyl)bicyclo[1.1.1]pentan-1-yl)benzamide] | 0.619
CS(=O)(=O)c1ccc(S(=O)(=O)Nc2cc(F)ccc2C(=O)NC23CC(C(F)(F)F)(C2)C3)cc1 [Example 5, 4-fluoro-2-((4-(methylsulfonyl)phenyl)sulfonamido)-N-(3-(trifluoromethyl)bicyclo[1.1.1]pentan-1-yl)benzamide] | 5.8
O=C(NC12CC(C(F)(F)F)(C1)C2)c1ccc(C(F)(F)F)cc1NS(=O)(=O)c1ccc(OC(F)(F)F)cc1 [Example 6, 2-((4-(trifluoromethoxy)phenyl)sulfonamido)-4-(trifluoromethyl)-N-(3-(trifluoromethyl)bicyclo[1.1.1]pentan-1-yl)benzamide] | 0.267
CC(C)(C)c1ccc(S(=O)(=O)Nc2cc(C(F)(F)F)ccc2C(=O)NC23CC(C#N)(C2)C3)cc1 [Example 7, 2-((4-(tert-butyl)phenyl)sulfonamido)-N-(3-cyanobicyclo[1.1.1]pentan-1-yl)-4-(trifluoromethyl)benzamide] | 0.813
CS(=O)(=O)c1ccc(S(=O)(=O)Nc2cc(C(F)(F)F)ccc2C(=O)NC23CC(C(F)(F)F)(C2)C3)cc1 [Example 8, 2-((4-(methylsulfonyl)phenyl)sulfonamido)-4-(trifluoromethyl)-N-(3-(trifluoromethyl)bicyclo[1.1.1]pentan-1-yl)benzamide] | 4.1
CS(=O)(=O)c1ccc(S(=O)(=O)Nc2cc(C(F)(F)F)ccc2C(=O)NC23CCC(F)(CC2)CC3)cc1 [Example 9, N-(4-fluorobicyclo[2.2.2]octan-1-yl)-2-((4-(methylsulfonyl)phenyl)sulfonamido)-4-(trifluoromethyl)benzamide] | 5.56
CS(=O)(=O)c1ccc(S(=O)(=O)Nc2cc(C(F)(F)F)ccc2C(=O)NC23CC4CC(CC(C4)C2)C3)cc1 [Example 10, N-((3s,5s,7s)-adamantan-1-yl)-2-((4-(methylsulfonyl)phenyl)sulfonamido)-4-(trifluoromethyl)benzamide] | 1.22
CS(=O)(=O)c1ccc(S(=O)(=O)Nc2cc(C(F)(F)F)ccc2C(=O)NC23CC(c4ccccc4)(C2)C3)cc1 [Example 11, 2-((4-(methylsulfonyl)phenyl)sulfonamido)-N-(3-phenylbicyclo[1.1.1]pentan-1-yl)-4-(trifluoromethyl)benzamide] | 1.92
CS(=O)(=O)c1ccc(S(=O)(=O)Nc2cc(F)ccc2C(=O)NC23CC(c4ccccc4)(C2)C3)cc1 [Example 12, 4-fluoro-2-((4-(methylsulfonyl)phenyl)sulfonamido)-N-(3-phenylbicyclo[1.1.1]pentan-1-yl)benzamide] | 6.88
CC(C)(C)c1ccc(C(=O)NC23CC(C(F)(F)F)(C2)C3)c(NS(=O)(=O)c2ccc(S(C)(=O)=O)cc2)c1 [Example 13, 4-(tert-butyl)-2-((4-(methylsulfonyl)phenyl)sulfonamido)-N-(3-(trifluoromethyl)bicyclo[1.1.1]pentan-1-yl)benzamide] | 5.72
CC(C)(C)c1ccc(C(=O)NC23CC(C#N)(C2)C3)c(NS(=O)(=O)c2ccc(S(C)(=O)=O)cc2)c1 [Example 14, 4-(tert-butyl)-N-(3-cyanobicyclo[1.1.1]pentan-1-yl)-2-((4-(methylsulfonyl)phenyl)sulfonamido)benzamide] | ≥ 20
CC(C)(C)c1ccc(C(=O)NC23CC(c4ccccc4)(C2)C3)c(NS(=O)(=O)c2ccc(S(C)(=O)=O)cc2)c1 [Example 15, 4-(tert-butyl)-2-((4-(methylsulfonyl)phenyl)sulfonamido)-N-(3-phenylbicyclo[1.1.1]pentan-1-yl)benzamide] | 10.9
CC(C)(C)c1ccc(S(=O)(=O)Nc2cc(S(C)(=O)=O)ccc2C(=O)NC23CC(C(F)(F)F)(C2)C3)cc1 [Example 16, 2-((4-(tert-butyl)phenyl)sulfonamido)-4-(methylsulfonyl)-N-(3-(trifluoromethyl)bicyclo[1.1.1]pentan-1-yl)benzamide] | 5.55
O=C(NC12CC(C(F)(F)F)(C1)C2)c1ccc(C(F)(F)F)cc1NS(=O)(=O)c1ccc(-n2cnnn2)cc1 [Example 17, 2-((4-(1H-tetrazol-1-yl)phenyl)sulfonamido)-4-(trifluoromethyl)-N-(3-(trifluoromethyl)bicyclo[1.1.1]pentan-1-yl)benzamide] | 5.83
CS(=O)(=O)c1ccc(S(=O)(=O)Nc2cc(C(F)(F)F)ccc2C(=O)NC23CC(C#N)(C2)C3)cc1 [Example 18, N-(3-cyanobicyclo[1.1.1]pentan-1-yl)-2-((4-(methylsulfonyl)phenyl)sulfonamido)-4-(trifluoromethyl)benzamide] | 114
Cn1cc(S(=O)(=O)Nc2cc(C(F)(F)F)ccc2C(=O)NC23CC(C(F)(F)F)(C2)C3)cn1 [Example 19, 2-((1-methyl-1H-pyrazole)-4-sulfonamido)-4-(trifluoromethyl)-N-(3-(trifluoromethyl)bicyclo[1.1.1]pentan-1-yl)benzamide] | 6.41
CS(=O)(=O)c1ccc(S(=O)(=O)Nc2cc(C(F)(F)F)ccc2C(=O)NC23CC(F)(C2)C3)cc1 [Example 20, N-(3-fluorobicyclo[1.1.1]pentan-1-yl)-2-((4-(methylsulfonyl)phenyl)sulfonamido)-4-(trifluoromethyl)benzamide] | 14.3
CS(=O)(=O)c1ccc(S(=O)(=O)Nc2cc(F)ccc2C(=O)NC23CC(F)(C2)C3)cc1 [Example 21, 4-fluoro-N-(3-fluorobicyclo[1.1.1]pentan-1-yl)-2-((4-(methylsulfonyl)phenyl)sulfonamido)benzamide] | 38.9
CS(=O)(=O)c1cccc(S(=O)(=O)Nc2cc(F)ccc2C(=O)NC23CC(C(F)(F)F)(C2)C3)c1 [Example 22, 4-fluoro-2-((3-(methylsulfonyl)phenyl)sulfonamido)-N-(3-(trifluoromethyl)bicyclo[1.1.1]pentan-1-yl)benzamide] | 9.97
CS(=O)(=O)c1ccc(S(=O)(=O)Nc2cc(C(F)(F)F)ccc2C(=O)NC23CC(C2)C3)cc1 [Example 23, N-(bicyclo[1.1.1]pentan-1-yl)-2-((4-(methylsulfonyl)phenyl)sulfonamido)-4-(trifluoromethyl)benzamide] | 12
CCS(=O)(=O)c1ccc(S(=O)(=O)Nc2cc(C(F)(F)F)ccc2C(=O)NC23CC(C(F)(F)F)(C2)C3)cc1 [Example 24, 2-((4-(ethylsulfonyl)phenyl)sulfonamido)-4-(trifluoromethyl)-N-(3-(trifluoromethyl)bicyclo[1.1.1]pentan-1-yl)benzamide] | 3.32
CCS(=O)(=O)c1ccc(S(=O)(=O)Nc2cc(C(F)(F)F)ccc2C(=O)NC23CC(C#N)(C2)C3)cc1 [Example 25, N-(3-cyanobicyclo[1.1.1]pentan-1-yl)-2-((4-(ethylsulfonyl)phenyl)sulfonamido)-4-(trifluoromethyl)benzamide] | ≥ 50
CCS(=O)(=O)c1ccc(S(=O)(=O)Nc2cc(C(F)(F)F)ccc2C(=O)NC23CC(F)(C2)C3)cc1 [Example 26, 2-((4-(ethylsulfonyl)phenyl)sulfonamido)-N-(3-fluorobicyclo[1.1.1]pentan-1-yl)-4-(trifluoromethyl)benzamide] | 6.94
CCS(=O)(=O)c1ccc(S(=O)(=O)Nc2cc(C(F)(F)F)ccc2C(=O)NC23CC(C2)C3)cc1 [Example 27, N-(bicyclo[1.1.1]pentan-1-yl)-2-((4-(ethylsulfonyl)phenyl)sulfonamido)-4-(trifluoromethyl)benzamide] | 4.5
O=C(NC12CC(C(F)(F)F)(C1)C2)c1ccc(F)cc1NS(=O)(=O)c1ccc(S(=O)(=O)C2CC2)cc1 [Example 28, 2-((4-(cyclopropylsulfonyl)phenyl)sulfonamido)-4-fluoro-N-(3-(trifluoromethyl)bicyclo[1.1.1]pentan-1-yl)benzamide] | 2.76
